The test system of data set [1] is Canis familiaris. As to the kind of experiment: Spermine Distribution in liver was determined after DESPM dosing of 1.87 mg/kg/day for 28 days in dog(cu dose-52.4) and sacrificed at 10 days PLD(cu dose-52.4 mg/kg). In kind it is ADME, organism-based, Canis lupus familiaris. Particulars: in vivo, 240 h.
Data set [2] concerns Rattus norvegicus. Briefly: Stool output of rat over the 6-h collection period when a dose of 14.3 mg/kg (35.4 administered. Format: functional.
Data set [3] concerns Canis familiaris. Briefly: putrescine Distribution in kidney was determined after DESPM dosing of 1.87 mg/kg/day for 28 days in dog and sacrificed at 10 days PLD(cu dose-52.4 mg/kg). In kind it is ADME, organism-based, Canis lupus familiaris. Particulars: in vivo, 240 h.
Data set [4] deals with Canis familiaris. Briefly: putrescine Distribution in liver was determined after DESPM dosing of 8.0 mg/kg/day for 4.5 days in dog(cu dose-52.4) and sacrificed at 75 days PLD(cu dose-36 mg/kg). In kind it is ADME, organism-based, Canis lupus familiaris. Particulars: in vivo, 1800 h.
Data set [5] relates to Canis familiaris. As to the kind of experiment: putrescine Distribution in liver was determined after DESPM dosing of 4 mg/kg/day for 13 days in dog(cu dose-52.4) and sacrificed at 75 days PLD(cu dose-52 mg/kg). Format: ADME, organism-based, Canis lupus familiaris. The note with it: in vivo, 1800 h.
Data set [6] has as its system Rattus norvegicus. Briefly: Percent reduction was determined by using the ratio of mean of treated animal to that of control animal at a dose of 47 mg/kg. In kind it is functional.
The test system of data set [7] is Canis familiaris. As to the kind of experiment: Spermidine Distribution in liver was determined after DESPM dosing of 8.0 mg/kg/day for 4.5 days in dog(cu dose-52.4) and sacrificed at 10 days PLD(cu dose-36 mg/kg). Format: ADME, organism-based, Canis lupus familiaris. The note with it: in vivo, 240 h.
The subject of data set [8] is Canis familiaris. As to the kind of experiment: putrescine Distribution in kidney was determined after DESPM dosing of 8.0 mg/kg/day for 4.5 days in dog and sacrificed at 10 days PLD(cu dose-36 mg/kg). Format: ADME, organism-based, Canis lupus familiaris. Particulars: in vivo, 240 h.
The test system of data set [9] is Canis familiaris. Briefly: Spermine Distribution in liver was determined after DESPM dosing of 8.0 mg/kg/day for 4.5 days in dog(cu dose-52.4) and sacrificed at 75 days PLD(cu dose-36 mg/kg). Particulars: in vivo, 1800 h. In kind it is ADME, organism-based, Canis lupus familiaris.
Data set [10] concerns Canis familiaris. As to the kind of experiment: Spermine Distribution in liver was determined after DESPM dosing of 8.0 mg/kg/day for 4.5 days in dog(cu dose-52.4) and sacrificed at 10 days PLD(cu dose-36 mg/kg). In kind it is ADME, organism-based, Canis lupus familiaris. Particulars: in vivo, 240 h.
For data set [11], the system named is Canis familiaris. As to the kind of experiment: MESPM/MEHSPH Distribution in liver was determined after DESPM dosing of 4 mg/kg/day for 13 days in dog(cu dose-52.4) and sacrificed at 10 days PLD(cu dose-52 mg/kg). The note with it: in vivo, 240 h. In kind it is ADME, organism-based, Canis lupus familiaris.
Data set [12] relates to Canis familiaris. Briefly: putrescine Distribution in kidney was determined after DESPM dosing of 8.0 mg/kg/day for 4.5 days in dog and sacrificed at 75 days PLD(cu dose-36 mg/kg). Format: ADME, organism-based, Canis lupus familiaris. Particulars: in vivo, 1800 h.
Data set [13] concerns Canis familiaris. As to the kind of experiment: MESPM/MEHSPH Distribution in liver was determined after DESPM dosing of 6.0 mg/kg/day for 4.5 days in dog(cu dose-52.4) and sacrificed at 10 days PLD(cu dose-27 mg/kg). Format: ADME, organism-based, Canis lupus familiaris. The note with it: in vivo, 240 h.
In data set [14] the test system is Canis familiaris. As to the kind of experiment: Spermidine Distribution in liver was determined after DESPM dosing of 1.87 mg/kg/day for 28 days in dog(cu dose-52.4) and sacrificed at 75 days PLD(cu dose-52.4 mg/kg). Format: ADME, organism-based, Canis lupus familiaris. Particulars: in vivo, 1800 h.
Data set [15] deals with Canis familiaris. As to the kind of experiment: putrescine Distribution in kidney was determined after DESPM dosing of 6.0 mg/kg/day for 4.5 days in dog and sacrificed at 10 days PLD(cu dose-27 mg/kg). Format: ADME, organism-based, Canis lupus familiaris. The note with it: in vivo, 240 h.
Data set [16] has as its system Rattus norvegicus. Briefly: Weight loss of rat over the 6-h experimental period when a dose of 0 mg/kg (0 administered. Format: functional.
The test system of data set [17] is Rattus norvegicus. As to the kind of experiment: Stool output of rat over the 6-h collection period when a dose of 4.7 mg/kg (11.6 administered. Format: functional.
Data set [18] deals with Canis familiaris. Briefly: Spermidine Distribution in kidney was determined after DESPM dosing of 4 mg/kg/day for 13 days in dog(cu dose-52.4) and sacrificed at 75 days PLD(cu dose-52 mg/kg). Format: ADME, organism-based, Canis lupus familiaris. Particulars: in vivo, 1800 h.
Data set [19] relates to Canis familiaris. Briefly: Spermidine Distribution in kidney was determined after DESPM dosing of 6.0 mg/kg/day for 4.5 days in dog(cu dose-52.4) and sacrificed at 75 days PLD(cu dose-27 mg/kg). In kind it is ADME, organism-based, Canis lupus familiaris. The note with it: in vivo, 1800 h.
Data set [20] has as its system Canis familiaris. Briefly: putrescine Distribution in liver was determined after DEHSPM dosing of 2.0 mg/kg/day for 29 days in dog(cu dose-52.4) and sacrificed at 10 days PLD([…]). In kind it is ADME, organism-based, Canis lupus familiaris. Particulars: in vivo, 240 h.
The test system of data set [21] is Canis familiaris. As to the kind of experiment: MESPM/MEHSPH Distribution in liver was determined after DEHSPM dosing of 2.0 mg/kg/day for 29 days in dog(cu dose-52.4) and sacrificed at 10 days PLD(cu dose-22 mg/kg). In kind it is ADME, organism-based, Canis lupus familiaris. The note with it: in vivo, 240 h.
The test system of data set [22] is Canis familiaris. Briefly: HSPM Distribution in liver was determined after DEHSPM dosing of 2.0 mg/kg/day for 29 days in dog(cu dose-52.4) and sacrificed at 10 days PLD(cu dose-22 mg/kg). In kind it is ADME, organism-based, Canis lupus familiaris. Particulars: in vivo, 240 h.
Data set [23] has as its system Canis familiaris. Briefly: MESPM/MEHSPH Distribution in liver was determined after DEHSPM dosing of 2.0 mg/kg/day for 29 days in dog(cu dose-52.4) and sacrificed at 10 days PLD(cu dose-58 mg/kg). In kind it is ADME, organism-based, Canis lupus familiaris. The note with it: in vivo, 240 h.

The structures appear in SMILES notation. Several values for one entry are separate records, joined by “and”; a condition that tells them apart may be missing. Equal entries are not always repeated.

For the compound `CCNCCCNCCCCNCCCNCC` [BIS(ETHYL)SPERMINE], the “Wet weight of tissue” value came to 850 nM/g with Canis familiaris [1]; 0 nM/g in the data set with Canis familiaris [3]; 56 nM/g with Canis familiaris [4]; 62 nM/g in the data set on Canis familiaris [5]; 187 nM/g in the data set on Canis familiaris [7]; 20 nM/g in the data set on Canis familiaris [8]. Further, the “Wet weight of tissue” value stood at 1058 nM/g in the data set with Canis familiaris [9]; 937 nM/g in the data set on Canis familiaris [10]; 34 nM/g with Canis familiaris [11]; 6 nM/g in the data set with Canis familiaris [12]; 23 nM/g in the data set on Canis familiaris [13]; 198 nM/g in the data set with Canis familiaris [14]. The “Wet weight of tissue” value in the data set on Canis familiaris [15] stood at 7 nM/g; in the data set on Canis familiaris [18], 117 nM/g; in the data set on Canis familiaris [19] it was 90 nM/g. For the same compound, the Stool output is <0.6 g (350g of rat weight)-1 in the data set with Rattus norvegicus [2] and <3 g (350g of rat weight)-1 in the data set on Rattus norvegicus [17]. In the data set on Rattus norvegicus [6], the Reduction was 75% and 92%. The same compound had a Weight loss in the data set on Rattus norvegicus [16] of 11.9 g.

Consider `CCNCCCCNCCCCNCCCCNCC` [DIETHYLHOMOSPERMINE], for which the “Wet weight of tissue” value in the data set on Canis familiaris [20] stood at 34 nM/g; in the data set with Canis familiaris [21], 13 nM/g; with Canis familiaris [22], 668 nM/g; in the data set on Canis familiaris [23], 72 nM/g.
